We go through 13 molecules from US20230069722A1, “TUBULYSINS AND PROTEIN-TUBULYSIN CONJUGATES” (priority 2020, published 2023).

The structures appear in SMILES notation. Where two headings read alike, the source gives them in different places.

This assay has as its system HCT15 cells. Put plainly: MDR cell based killing assay, HCT15 cells with or without Verapamil (CellTiter-Glo). More on the design: species or system human. The conditions noted are these: Homo sapiens. The method, then:
To test the ability of the disclosed tubulysin payloads or prodrug payloads to kill human cell lines, an in vitro cytotoxicity assay can be performed. In vitro cytotoxicity of the disclosed payloads, as well as reference compounds, are evaluated using the CellTiter-Glo Assay Kit (Promega, Cat # G7573), in which the quantity of ATP present is used to determine the number of viable cells in culture. For the assay, C4-2, HEK293, or T47D cells are seeded at 4000 cells/well on Nunclon white 96-well plates in complete growth medium (DME high glucose:Ham's F12 at 4:1, 10% FBS, 100 units/ml Penicillin, 100 ug/ml streptomycin, 53 ug/ml glutatmine, 10 ug/ml insulin, 220 ng/ml biotin, 12.5 pg/ml T3, 12.5 ug/ml Adenine, 4 ug/ml transferrin for C42 cells; DME high glucose, 10% FBS, 100 units/ml Penicillin, 100 ug/ml streptomycin, 53 ug/ml glutatmine for HEK293; RPMI, 10% FBS, 100 units/ml Penicillin, 100 ug/ml streptomycin, 53 ug/ml glutatmine, 10 ug/ml insulin, 10 mM HEPEs, 200 nM Sodium Pyruvate for T47D cells) and grown overnight at 37° C. in 5% CO2. For cell viability curves, 1:3 serially diluted payloads are added to the cells at final concentrations ranging from 100 nM to 15 pM, including a no treatment control group, and are then incubated for 5 days. After the 5-day incubation, cells are incubated at room temperature with 100 μL of CellTiter-Glo reagents for 10 minutes. Relative luminescence units (RLU) can be determined on a Victor plate reader (PerkinElmer). The IC50 values are determined from a four-parameter logistic equation over a 10-point response curve (GraphPad Prism). All IC50 values are expressed in molar (M) concentration. The percent cell killing (% kill) at the maximum concentration tested is estimated from the following formula (100−% viable cells). Averages±standard deviation (SD) can be included where replicate experiments are performed.
In vitro cytotoxicity of the disclosed payloads as well as reference compounds are evaluated similarly as described above except using 1000 HCT15 cells, a colorectal carcinoma cell line, in growth medium (RPMI, 10% FBS, 100 units/ml Penicillin, 100 ug/ml streptomycin, 53 ug/ml glutatmine) with or without 5 ug/mL of Verapamil.
For each payload or prodrug payload, the HCT-15 IC50 in the absence of Verapamil is divided by the HCT-15 IC50 in the presence of Verapamil (HCT-15 IC50/HCT-15+Verapamil IC50). […] The reference compound, (MMAE), can have a ratio of 23.7. […]
On the technique in general: Cellular ATP, detected with luciferase, serves as a proxy for viable cell number.

The mark [1] stands for this setting: HCT-15, read-out: HCT-15 with verapamil IC50.

For the molecule `CCCCCON(C(=O)[C@@H](NC(=O)[C@H]1CCCCN1)[C@@H](C)CC)[C@H](C[C@@H](OC(C)=O)c1nc(C(=O)N[C@@H](Cc2ccc(N)cc2)CC(C)(C)C(=O)O)cs1)C(C)C` [Compound P36, (4S)-4-({2-[(1R,3R)-1-(acetyloxy)-4-methyl-3-[(2S,3S)-3-methyl-N-(pentyloxy)-2-[(2R)-piperidin-2-ylformamido]pentanamido]pentyl]-1,3-thiazol-4-yl}formamido)-5-(4-aminophenyl)-2,2-dimethylpentanoic Acid], where the note is “HCT-15, read-out: HCT-15 IC50”, the IC50 – broadly, the concentration that inhibits the measured activity by half – stood at 12.2 nM. For `CCCCCCN(C(=O)[C@@H](NC(=O)[C@@]1(C)CCCN1)[C@@H](C)CC)[C@H](C[C@@H](OC(C)=O)c1nc(C(=O)N[C@@H](Cc2ccc(N)c(F)c2)CC(C)(C)C(=O)O)cs1)C(C)C` [Compound P15, (4S)-4-({2-[(1R,3R)-1-(acetyloxy)-3-[(2S,3S)—N-hexyl-3-methyl-2-{[(2R)-2-methylpyrrolidin-2-yl]formamido}pentanamido]-4-methylpentyl]-1,3-thiazol-4-yl}formamido)-5-(4-amino-3-fluorophenyl)-2,2-dimethylpentanoic Acid], the IC50 was 1.01 nM (HCT-15, read-out: HCT-15 IC50) and 0.19 nM under setting [1].

Turning to `CCCCCCN(C(=O)[C@@H](NC(=O)[C@H]1CCCCN1C)[C@@H](C)CC)[C@H](C[C@@H](OC(=O)NCCN)c1nc(C(=O)N[C@@H](Cc2ccc(N)c(F)c2)CC(C)(C)C(=O)O)cs1)C(C)C` [Compound P5, (4S)-5-(4-amino-3-fluorophenyl)-4-({2-[(1R,3R)-1-{[(2-aminoethyl)carbamoyl]oxy}-3-[(2S,3S)—N-hexyl-3-methyl-2-{[(2R)-1-methylpiperidin-2-yl]formamido}pentanamido]-4-methylpentyl]-1,3-thiazol-4-yl}formamido)-2,2-dimethylpentanoic Acid], the IC50 runs as follows: (HCT-15, read-out: HCT-15 IC50) 38.6 nM; under setting [1], 4.44 nM.

`CCCCCCN(C(=O)[C@@H](NC(=O)[C@@]1(C)CCCN1C)[C@@H](C)CC)[C@H](C[C@@H](OC(C)=O)c1nc(C(=O)N[C@@H](Cc2ccc(N)cc2)CC(C)(C)C(=O)O)cs1)C(C)C` [Compound P19, (4S)-4-({2-[(1R,3R)-1-(acetyloxy)-3-[(2S,3S)-2-{[(2R)-1,2-dimethylpyrrolidin-2-yl]formamido}-N-hexyl-3-methylpentanamido]-4-methylpentyl]-1,3-thiazol-4-yl}formamido)-5-(4-aminophenyl)-2,2-dimethylpentanoic Acid]: the IC50 is, setting by setting: (HCT-15, read-out: HCT-15 IC50) 0.2 nM; under setting [1], 0.01 nM. On the same counts, the results for `CCCCCCN(C(=O)[C@@H](NC(=O)[C@H]1C[C@H](C)CCN1C)[C@@H](C)CC)[C@H](C[C@@H](OC(C)=O)c1nc(C(=O)N[C@@H](Cc2ccc(N)c(F)c2)CC(C)(C)C(=O)O)cs1)C(C)C` [Compound P13, (4S)-4-({2-[(1R,3R)-1-(acetyloxy)-3-[(2S,3S)-2-{[(2R,4R)-1,4-dimethylpiperidin-2-yl]formamido}-N-hexyl-3-methylpentanamido]-4-methylpentyl]-1,3-thiazol-4-yl}formamido)-5-(4-amino-3-fluorophenyl)-2,2-dimethylpentanoic Acid] are 0.15 nM and 0.13 nM.

`CCCCCCN(C(=O)[C@@H](NC(=O)[C@H]1CCCCN1)[C@@H](C)CC)[C@H](C[C@@H](OCC)c1nc(C(=O)N[C@@H](Cc2ccc(N)cc2)CC(C)(C)C(=O)O)cs1)C(C)C` [Compound P20, (4S)-5-(4-aminophenyl)-4-({2-[(1R,3R)-1-ethoxy-3-[(2S,3S)—N-hexyl-3-methyl-2-[(2R)-piperidin-2-ylformamido]pentanamido]-4-methylpentyl]-1,3-thiazol-4-yl}formamido)-2,2-dimethylpentanoic Acid]: the IC50 runs as follows: (HCT-15, read-out: HCT-15 IC50) 6.97 nM; under setting [1], 0.52 nM. For the molecule `C#CCCCON(C(=O)[C@@H](NC(=O)[C@H]1CCCCN1C)[C@@H](C)CC)[C@H](C[C@@H](OC(C)=O)c1nc(C(=O)N[C@@H](Cc2ccc(NC(=O)CO)cc2)CC(C)(C)C(=O)O)cs1)C(C)C` [Compound P37, (4S)-4-({2-[(1R,3R)-1-(acetyloxy)-4-methyl-3-[(2S,3S)-3-methyl-2-{[(2R)-1-methylpiperidin-2-yl]formamido}-N-(pent-4-yn-1-yloxy)pentanamido]pentyl]-1,3-thiazol-4-yl}formamido)-5-[4-(2-hydroxyacetamido)phenyl]-2,2-dimethylpentanoic Acid], for the setting “HCT-15, read-out: HCT-15 IC50”, the IC50 is 102 nM. `CCCCCCN(C(=O)[C@@H](NC(=O)[C@H]1CCCCN1C)[C@@H](C)CC)[C@H](C[C@@H](O)c1nc(C(=O)N[C@@H](Cc2ccc(N)cc2)CC(C)(C)C(=O)O)cs1)C(C)C` [Compound P6, (4S)-5-(4-aminophenyl)-4-({2-[(1R,3R)-3-[(2S,3S)—N-hexyl-3-methyl-2-{[(2R)-1-methylpiperidin-2-yl]formamido}pentanamido]-1-hydroxy-4-methylpentyl]-1,3-thiazol-4-yl}formamido)-2,2-dimethylpentanoic Acid]: the IC50 by setting is: (HCT-15, read-out: HCT-15 IC50) 16.3 nM; under setting [1], 0.78 nM. On the same counts, the results for `CCCCCCN(C(=O)[C@@H](NC(=O)[C@H]1C[C@H](C)CCN1)[C@@H](C)CC)[C@H](C[C@@H](OCC)c1nc(C(=O)N[C@@H](Cc2ccc(N)c(F)c2)CC(C)(C)C(=O)O)cs1)C(C)C` [Compound P17, (4S)-5-(4-amino-3-fluorophenyl)-4-({2-[(1R,3R)-1-ethoxy-3-[(2S,3S)—N-hexyl-3-methyl-2-{[(2R,4R)-4-methylpiperidin-2-yl]formamido}pentanamido]-4-methylpentyl]-1,3-thiazol-4-yl}formamido)-2,2-dimethylpentanoic Acid] are 5.17 nM and 0.67 nM. On the same counts, the results for `CCCCCCN(C(=O)[C@@H](NC(=O)[C@H]1CCCCN1C)[C@@H](C)CC)[C@H](C[C@@H](OC(C)=O)c1nc(C(=O)NS(=O)(=O)c2ccc(N)cc2)cs1)C(C)C` [Compound P43, (1R,3R)-1-{4-[(4-aminobenzenesulfonyl)carbamoyl]-1,3-thiazol-2-yl}-3-[(2S,3S)—N-hexyl-3-methyl-2-{[(2R)-1-methylpiperidin-2-yl]formamido}pentanamido]-4-methylpentyl Acetate] are 4.99 nM and 1.42 nM. For the molecule `CCCCCCN(C(=O)[C@@H](NC(=O)[C@H]1CCCCN1C)[C@@H](C)CC)[C@H](C[C@@H](OC(C)=O)c1nc(C(=O)N[C@@H](Cc2ccc(F)cc2)CC(C)(C)C(=O)NS(=O)(=O)c2ccc(N)cc2)cs1)C(C)C` [Compound P47, (1R,3R)-1-(4-{[(2S)-4-[(4-aminobenzenesulfonyl)carbamoyl]-1-(4-fluorophenyl)-4,4-dimethylbutan-2-yl]carbamoyl}-1,3-thiazol-2-yl)-3-[(2S,3S)—N-hexyl-3-methyl-2-{[(2R)-1-methylpiperidin-2-yl]formamido}pentanamido]-4-methylpentyl Acetate], the IC50 (HCT-15, read-out: HCT-15 IC50) was determined as 53.5 nM. As to `CCCCCCN(C(=O)[C@@H](NC(=O)[C@H]1C[C@H](C)CCN1)[C@@H](C)CC)[C@H](C[C@@H](OCC)c1nc(C(=O)N[C@@H](Cc2ccc(N)cc2)CC(C)(C)C(=O)O)cs1)C(C)C` [Compound P21, (4S)-5-(4-aminophenyl)-4-({2-[(1R,3R)-1-ethoxy-3-[(2S,3S)—N-hexyl-3-methyl-2-{[(2R,4R)-4-methylpiperidin-2-yl]formamido}pentanamido]-4-methylpentyl]-1,3-thiazol-4-yl}formamido)-2,2-dimethylpentanoic Acid], the IC50 (HCT-15, read-out: HCT-15 IC50) was found to be 11.1 nM and the IC50 under setting [1] is 1.47 nM.

In the case of `CCCCCCN(C(=O)[C@@H](NC(=O)[C@H]1CCCCN1C)[C@@H](C)CC)[C@H](C[C@@H](OC(=O)NCCOCCOCCOCCN)c1nc(C(=O)N[C@@H](Cc2ccc(F)cc2)CC(C)(C)C(=O)O)cs1)C(C)C` [Compound P11, (4S)-4-({2-[(1R,3R)-1-{[(2-{2-[2-(2-aminoethoxy)ethoxy]ethoxy}ethyl)carbamoyl]oxy}-3-[(2S,3S)—N-hexyl-3-methyl-2-{[(2R)-1-methylpiperidin-2-yl]formamido}pentanamido]-4-methylpentyl]-1,3-thiazol-4-yl}formamido)-5-(4-fluorophenyl)-2,2-dimethylpentanoic Acid], the IC50 (HCT-15, read-out: HCT-15 IC50) came out at 157 nM.
